Measurements reported in patent US20070093460A1, “Methods of using selective 11beta-HSD inhibitors to treat gluocorticoid associated states” (priority 2005, published 2007).
Entries after “also recorded” stand apart in the source; their conditions may differ. Like-named read-outs stand apart in the source and are kept apart here.

Legend:
[1] = target: T1, 11β-HSD1 Reductase (Rattus norvegicus, UniProt P16232); assay: 11β-HSD1 reductase assay in rat Leydig cell homogenates;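 further: rat Leydig cell homogenate incubated 20 min at 37 °C, pH 7.4, with tritiated 11-dehydro-corticosterone and 3 mM NADPH, product measured by HPLC, inhibition from triplicate dose–response curves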
[2] = target: T2, 11β-HSD1 Dehydrogenase (Rattus norvegicus, UniProt P16232); assay: 11β-HSD1 dehydrogenase assay in rat Leydig cell homogenates; format: biochemical; parameters: Freshly prepared rat Leydig cell homogenates were chosen since they provide a rich and reliable source of both 11β-HSD1 dehydrogenase and reductase; from tissue; host or cells: rat testicular Leydig cells, homogenate; conditions: for inhibitors of 11β-HSD1 dehydrogenase (summary in words): summary of the screening;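 on all read-outs here: tritiated corticosterone conversion by 11β-HSD1 dehydrogenase in Leydig homogenates with 3 mM NADP at pH 8.4, 37 °C for 10 min, products resolved by HPLC, inhibition relative to uninhibited enzyme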
Description: Each enzyme reaction (described below) was stopped by adding 750 μL MeOH. After centrifugation, an aliquot of supernatant was analyzed by HPLC using a DuPont Zorbax C8 column.
11β-HSD1 dehydrogenase was assayed by incubating homogenates (13,000 cells equivalent) with 600 nM [^3H]-B (0.5 μCi) in the presence of 3 mM NADP, 50 mM Tris-HCl; pH 8.4 at 37° C. for 10 minutes in a total volume of 250 μL. 11β-HSD1 reductase was assayed by incubating homogenates (52,000 cells equivalent) with 600 nM [^3H]-11-dehydro-corticosterone in presence of 3 mM NADPH, 50 mM Tris-HCl; pH 7.4 at 37° C. for 20 minutes in a total volume of 250 μL.
Each concentration was tested in triplicate and the dose response curve, showing percentage inhibition versus log concentration of steroid was plotted. The data fitted a log-linear straight line.

[3] = target: T1, 11β-HSD1 Reductase; assay: Table 1: inhibition of 11β-HSD1 reductase; format: biochemical; conditions: Table 1, inhibition in words
[4] = target: T2, 11β-HSD1 Dehydrogenase; assay: Table 1: inhibition of 11β-HSD1 dehydrogenase; format: biochemical; conditions: Table 1, inhibition in words
[5] = target: T3, 11β-HSD2 (Ovis aries, UniProt P50168); assay: 11β-HSD2 enzyme activity in sheep kidney microsomes; format: biochemical; conditions: for inhibitors of 11β-HSD2 (summary in words): summary of the screening
T3 construct: incubating sheep kidney microsomal fraction (6.5 μg protein) with 50 nM corticosterone; from tissue; host or cells: sheep kidney microsomal fraction
T3 sequence (P50168 1-427): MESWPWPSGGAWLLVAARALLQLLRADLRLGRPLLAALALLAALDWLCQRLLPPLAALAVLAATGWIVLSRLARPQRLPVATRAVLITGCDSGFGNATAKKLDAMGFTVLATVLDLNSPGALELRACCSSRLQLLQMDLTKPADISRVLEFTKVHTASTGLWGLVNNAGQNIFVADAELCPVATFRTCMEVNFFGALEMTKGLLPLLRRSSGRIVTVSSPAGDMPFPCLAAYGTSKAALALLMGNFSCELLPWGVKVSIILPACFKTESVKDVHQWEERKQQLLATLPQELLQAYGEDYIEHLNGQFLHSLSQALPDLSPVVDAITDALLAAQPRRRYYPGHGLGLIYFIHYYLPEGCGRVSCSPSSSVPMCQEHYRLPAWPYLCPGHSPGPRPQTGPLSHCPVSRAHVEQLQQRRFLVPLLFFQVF
Excerpt: The enzymatic reaction was termninated by addition of methanol and synthesis of 11-dehydro-corticosterone was quantitated by HPLC as described above.

[6] = target: T4, 11β-HSD2 Dehydrogenase (Ovis aries, UniProt P50168); assay: Table 1: inhibition of 11β-HSD2 dehydrogenase; format: biochemical; conditions: Table 1, inhibition in words
T4 sequence (P50168 1-427): T3 sequence (P50168 1-427)

[7] = test system: rat aortic rings; assay: Contractile response of rat aortic rings to phenylephrine; format: cell-based; conditions: rings incubated 24 h with steroid (corticosterone 10 nmol/L; 11-dehydro-corticosterone 100 nmol/L)
Description: Male Sprague-Dawley (150-200 g) rats were anesthetized with pentobarbital (50 mg/kg IP), and a median sternotomy was performed followed by the rapid removal of the thoracic aorta. The adventitia was removed, but the endothelium was left intact. The aorta was cut into 2-3 mm rings and individual rings were placed into a single well of a twenty four well culture plate and incubated at 37° C. under 95% 02-5% CO2. Each well contained 1 mL of DMEM/F12 containing 1% fetal bovine serum, streptomycin (100 μg/ml), penicillin (100 units/ml) and amphotericin (0.25 μg/ml). Aortic rings were incubated for 24 hours prior to contractility measurements with the following combinations of steroids, and antisense/nonsense oligonucleotides (3 μmol/L):
Antisense phosphorothioate oligonucleotides, targeted to block either 11β-HSD2 or 11β-HSD1 gene expression, were obtained from Research Genetics, Huntsville Ala. Antisense oligomers complementary to 20 bp sequences spanning the ribosome binding/translation start site were used. Oligomer sequences were: 5′-CATAACTGCCGTCCAACAGC-3′ (SEQ ID NO. 1) for 11β-HSD1 Antisense and 5′-AGGCCAGCGCTCCATGACTT-3′ (SEQ ID NO 2) for 11β-HSD2 antisense. In control experiments the corresponding sense sequence was used as the nonsense oligomer. Antisense and nonsense oligomers were added directly to each well at 20 μg/10:1 sterile H2O per well for a final concentration of 3 μmol/L.
For contraction measurements, aortic rings were suspended by tungsten wires with 1 g of tension and placed in a vessel bath containing serum free DMEM/F12 media at 37° C. aerated with 95% O2-5% CO2, at pH 7.4. Vessels were equilibrated for 20 minutes and then tested with phenylephrine (1 nmol/L-10 μmol/L). Although phenylephrine is structurally not a catecholamine, it is considered to be a functional catecholamine as it activates both a and P adrenoceptors. Due to its favorable stability characteristics, it is widely used as a catecholamine substitute in experiments of this nature. The intensity of contraction was assessed by use of a Narishige micromanipulator and model FT03 force transducer (Grass Instrument Co. West Warwick, R.I.). Measurements were recorded on computer using the Labview 4.1 Virtual Instrument System (National Instruments, Austin, Tex.).

T1 sequence (P16232 whole entry): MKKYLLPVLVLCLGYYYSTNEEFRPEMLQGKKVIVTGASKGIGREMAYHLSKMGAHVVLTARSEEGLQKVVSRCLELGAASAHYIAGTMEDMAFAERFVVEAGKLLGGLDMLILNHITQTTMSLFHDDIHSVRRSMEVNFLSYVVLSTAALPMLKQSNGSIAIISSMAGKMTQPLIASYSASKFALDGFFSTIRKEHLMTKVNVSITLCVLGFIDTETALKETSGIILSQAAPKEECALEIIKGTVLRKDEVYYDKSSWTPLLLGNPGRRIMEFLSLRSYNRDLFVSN
T2 sequence (P16232 whole entry): as above

Compound | IC50 [1] [nM] | IC50 [2] [nM] | inhibitors of 11β-HSD1 dehydrogenase (summary in words) [2] | 11β-HSD1 Reductase [3] | 11β-HSD1 Dehydrogenase [4] | IC50 [5] [nM] | inhibitors of 11β-HSD2 (summary in words) [5] | 11β-HSD2 Dehydrogenase [6] | Leydig Cell 11β-HSDl Dehydrogenase [S] = 600 nM ([2]; rat Leydig cell homogenates, 600 nM corticosterone, progesterone and androgen derivatives) | amplification of the contractile response to phenylephrine by the steroid [7] | IC50 ([2]; rat Leydig cell homogenates, 600 nM corticosterone, NADP, corticosteroid series, read-out: Leydig Cell 11β-HSD1 Dehydrogenase [S]= 600 nM) [nM] | IC50 ([5]; 11β-HSD2, sheep kidney microsomes, 50 nM corticosterone, NAD+, aldosterone, cortisol, corticosterone series, read-out: Dehydrogenase [S] = 50 nM) [nM] | Leydig Cell 11β-HSD1 Reductase [S]= 600 nM ([1]; rat Leydig cell homogenates, 600 nM 11-dehydro-corticosterone, progesterone and androgen derivatives) | inhibitors of 11β-HSD1 dehydrogenase (summary in words) ([2]; listed as 11β-OH-testosterone) | inhibitors of 11β-HSD1 dehydrogenase (summary in words) ([2]; listed as 11β-hydroxy-testosterone) | inhibitors of 11β-HSD2 (summary in words) ([5]; listed as 11β-OH-testosterone)
C[C@]12CCC(=O)C[C@H]1CC[C@@H]1[C@H]2[C@@H](O)C[C@]2(C)[C@@H](C(=O)CO)CC[C@@H]12 [5α-DH-Corticosterone, 5α-Pregnan-11β,-21-diol-3,20-dione] | 6300 | 2100 | potent inhibitors; also recorded: high potency | No inhibition | Potent Inhibitor | 150 | potent inhibitors; also recorded: high potency | Potent Inhibitor | – | – | – | – | – | – | – | –
C[C@]12CC(=O)[C@@H]3[C@@H](CCC4=CC(=O)CC[C@@]43C)[C@H]1CC[C@@H]2O [11 -Keto-Testosterone, 4-Androsten-17β-ol-11,3-dione] | 18000 | > 100000 | – | Selective Inhibitor | No Inhibition | 1350 | potent inhibitors; also recorded: high potency | No Inhibition | inactive | – | – | – | – | – | – | –
C[C@]12CC(=O)[C@H]3[C@@H](CCC4=CC(=O)CC[C@@]43C)[C@@H]1CC[C@@H]2C(=O)CO [11-dehydro-corticosterone] | – | – | – | – | – | – | potent inhibitors; also recorded: high potency | – | – | amplified the contractile response | > 100000 | 470 | – | – | – | –
C[C@]12C[C@H](O)[C@@H]3[C@@H](CCC4=CC(=O)CC[C@@]43C)[C@H]1CC[C@@H]2O [11β-OH-Testosterone, 4-Androsten-11β,17β-diol-3-one] | > 100000 | 9000 | potent inhibitors | No Inhibition | Inhibitor (Non-Selective) | 350 | – | Inhibitor (Non-Selective) | – | – | – | – | inactive | high potency | potently inhibit | potent inhibitors; also recorded: high potency
C[C@]12C[C@H](O)[C@H]3[C@@H](CCC4=CC(=O)CC[C@@]43C)[C@@H]1CC[C@@H]2C(=O)CO [corticosterone, reference compound] | – | – | – | – | – | – | – | – | – | amplified contractile responses | – | – | – | – | – | –
